Assay results as given in patent publication US5585358A, “Derivatives of valproic acid amides and 2-valproenoic acid amides, method of making and use thereof as anticonvulsant agents” (Yissum Research Development Corporation of the Hebrew …, priority 1993, dated 1996).
Like-named read-outs stand apart in the source and are kept apart here. Each block holds one compound with its values, some of them ahead of it.

What was measured:
[1] = rat p.o.; literature values; cited from earlier work
[2] = rat p.o.; literature values; cited from earlier work; remark: listed apart in the source
[3] = mice i.p., literature values, N.E. = not effective, cited from earlier work
[4] = format: in vivo, rat; design: key to Latency, Session I / Latency, Session II: latency in seconds for avoiding a potential shock
Protocol: Test was performed on days 16-17 (session 1) and 22-23 (session 2) after initiation of drug treatment. Better performance is indicated by an increase in avoidance score, a decrease in latency time, and an increase in the number of crossings.
(§1) The studies test for the level of motivation, association and short and long-term memory. The specific studies were the effect of compound 1 on the performance of rats in the locomotor test and passive and active response tests.
The conditioned avoidance response (active avoidance test) of rats was determined in a Hugo-Basile automatic conditioning apparatus, which consists of a shuttle box with two separate floor grids. In this apparatus the rats are conditioned to jump from one side of the box to the other side. The conditioning is a 10 sec stimulus consisting of a light and electric buzzer. […] The session is then repeated with the same rats 7 days later. Experiments were carried out on days 16-17 and 22-23 from the start of drug treatment, and each rat received 60 trials with a 30 sec interval between each trial.
The following parameters were recorded: a) the number of potential shocks successfully avoided; b) the latency response in seconds for avoiding a potential shock; and c) the total number of crossings made throughout the trials. In this test, a better performance is indicated by an increase in the avoidance of an electric shock, a decrease in the latency time to jump to the other side of the cage, and an increase in the number of times the rats crossed to the other side of the cage.
Scores in the active avoidance test (conditioned avoidance response) of
rats treated with compound 1 and related drugs. The tests in the first
session were performed on days 16-17 from initiation of drug
administration. Those in session II were performed on days 22-23, that is
7 days following session I. Number of rats in a group are given in […]

[5] = rat p.o.; literature values; N.E. = not effective; cited from earlier work
[6] = neurotoxicity in mice (rotorod ataxia test)
Protocol: (§4) Neurotoxicity of the claimed agents was also assessed in mice (i.p. adminstration) by the rotorod ataxia test and also in some cases in rats (p.o. administration) by the positional sense test and gait and stance test.

[7] = maximal electroshock (MES) test, rat p.o.; format: in vivo; settings: for ED100: Rattus norvegicus, rats, read-out: minimum dose giving full protection against seizures in the MES test
From the text: (§2) The first model, the subcutaneous pentylenetetrazol (s.c. Met) seizure threshold test, is a standard screening procedure to show efficacy for agents against absence seizures. The second model, the maximal electroshock (MES) test, is used to show efficacy for antiepileptic agents against generalized seizures. In these studies, convulsions were inhibited or prevented in mice after intraperitoneal (i.p.) administration and/or in rats after oral (p.o.) administration of the compounds.
(§3) N-(2-Propylpentanoyl)glycinamide (hereinafter compound 1) was further tested in two additional models. The third model, electrical kindling of rats, has been known to show efficacy of antiepileptic agents against complex partial seizures that evolve into generalized motor seizures. In these tests, rats were electrically stimulated via corneal electrodes twice daily for approximately 5 days and then once daily for an additional 10 days. Once the seizure criteria, as described by R. J. Racine, et al., Electroenceph. […] In addition, compound 1 was also tested in the subcutaneous bicuculline model (s.c. Bic).
and rats by subcutaneous administration of pentylenetetrazol (s.c. Met
test) or by electrical stimulation (MES test). N.E. = not effective.

[8] = neurotoxicity in rats (positional sense test and gait and stance test); format: in vivo; settings: rat p.o.
Protocol: as §4

[9] = subcutaneous bicuculline model (s.c. Bic), mice; format: in vivo
From the text: as §3

[10] = format: in vivo, rat
Protocol: as §1
In the locomotor test, motor activity was recorded 8 to 9 days after the beginning of drug treatment. Locomotion scores were recorded in cages (25×26cm) having a grid of infra-red beams at 4 cm intervals. Two categories of movements were recorded: small movements (those originating in stationary activities such as grooming and scratching), and big movements (those resulting in ambulation and recorded as the simultaneous crossing of more than two beams). Since rats are nocturnal animals, recordings were usually made between 18:00 PM-6:00 AM.
Activity scores of drugtreated rats, measured in activity cages on days
8-9 after initiation of daily oral dosing with the given drug. Figures ar
number of crossings ± SEM. Number of rats per group are given in […]

[11] = electrical kindling model, rats p.o.; format: in vivo; settings: po; rat p.o.
From the text: as §3

[12] = maximal electroshock (MES) test, mice i.p.; format: in vivo; settings: for activity in MES model: doses up to 300 mg/kg
From the text: Convulsions were induced in mice

[13] = cognitive impairment tests in rats (locomotor, passive and active response tests); format: in vivo, rat; settings: at minimum dose giving full protection in MES test
From the text: A major neurological side effect observed in patients on treatment with antiepileptic agents is cognitive impairment. […] Results from the models used are taken as indicators of major constituents of human cognition.
as §1

[14] = screen for protection against chemically and electrically induced convulsions (at least two models of epilepsy); format: in vivo; settings: mice i.p. and/or rats p.o.; MES, s.c. Met, s.c. Bic, electrical kindling
From the text: as §2, §3

[15] = subcutaneous pentylenetetrazol (s.c. Met) seizure threshold test, mice i.p.; format: in vivo; settings: for activity in s.c. Met model: doses up to 300 mg/kg
From the text: Convulsions were induced in mice

[16] = format: in vivo, rat; remark: listed apart in the source
Protocol: Tests were performed on day 10 after drug treatment. Latency, in seconds, represents response time to entry into dark compartment. Maximum latency is 300 sec. Longer latencies represent improved performance. Bars represent mean standard error (SEM).
as §1
To measure passive avoidance responses, tests were performed on days 10, 12, 14, 20, and 26 after initiation of drug treatment. The apparatus consisted of a lit chamber that can be separated from a dark chamber by a sliding door. In the experiment, a rat is placed in a lit chamber for 30 sec, the door is then opened and the rat moves into the dark chamber with latency that is recorded. Upon entry into the dark chamber, the door is shut and a 0.3 mA footshock is delivered for 3 sec. Retention of the experience is determined after 48 hours by repeating the test and recording the latency. The maximum latency was arbitrarily assigned the value of 300 sec. Longer latencies are taken as a measure of improved memory.

in vivo = settings: mouse, ip
[17] = literature values; cited from earlier work
[18] = rat, in vivo, po; cited from earlier work
[19] = mice i.p.; literature values; cited from earlier work
[20] = median lethal dose in mice; settings: mouse, in vivo, ip
[21] = background literature; cited from earlier work
[22] = rats, days 16-17, compound 1 200, carbamazepine 15, Na valproate 500 mg/kg
[23] = rats, days 22-23, compound 1 200, carbamazepine 15, Na valproate 500 mg/kg
[24] = rats, daily oral dosing, days 8-9, compound 1 200 mg/kg, Na Valproate 500 mg/kg, ± SEM

Avoidance, Session I [4, 22]: 7 ± 4
Crossings, Session I [4, 22]: 18 ± 10
Latency, Session I [4, 22]: 27 ± 2 s
Avoidance, Session II [4, 23]: 2 ± 2
Crossings, Session II [4, 23]: 11 ± 8
Latency, Session II [4, 23]: 29 ± 1 s
SMILES: NC(=O)N1c2ccccc2C=Cc2ccccc21 [Carbamizepine]
ED50, electrical kindling model [1]: 28.9 mg/kg
ED50, MES model [2]: 8.5 mg/kg
ED50, s.c. MET model [3]: N.E.
ED50, s.c. MET model [5]: N.E.

SMILES: CCCC(CCC)C(=O)NCC(N)=O [Compound 1, N-(2-n-Propylpentanoyl)glycinamide]
TD50 compared with VPA ([6]; mice i.p., vs VPA): significantly higher for compound 1 (less neurotoxic)
TD50 ([6]; mouse, in vivo, ip): 369 mg/kg
ED100 ([7]; po): 200 mg/kg
ED50 ([7]; po, rat p.o., read-out: ED50, MES model): 73 mg/kg
Pi (protective index, TD50/ED50), MES model ([7]; rat p.o.): > 13.7
ED50 in MES model, times lower (more efficacious) than VPA ([7]; rat p.o., vs VPA): seven
ED50 in MES model relative to phenytoin ([7]; rat p.o., vs phenytoin): approximately twice
TD50 ([8]; in vivo, po, read-out: TD50 (median neurological toxic dose)): > 1000 mg/kg
TD50 (median neurological toxic dose) [8]: > 1000 mg/kg
protection from seizures, s.c. Bic model [9]: full protection from seizures in mice, at a dose that was approximately that of literature values for the ED50 for VPA
Big mov. (activity score), day activity 14.00-20.00 h [10, 24]: 2402 ± 307 number of crossings
Big mov. (activity score), night activity 20.00-08.00 h [10, 24]: 7217 ± 765 number of crossings
Total mov. (activity score), day activity 14.00-20.00 h [10, 24]: 7749 ± 1188 number of crossings
Total mov. (activity score), night activity 20.00-08.00 h [10, 24]: 22568 ± 2209 number of crossings
motor activity in locomotor test ([10]; rats, vs control): no significant difference in motor activity between the control and compound 1
ED50 [11]: 162 mg/kg
PI (protective index, TD50/ED50), MES model [12]: 2.4
ED50 ([12]; Mus musculus, ip, read-out: ED50, MES model): 152 mg/kg
cognitive impairment compared with VPA [13]: less cognitive impairment than VPA
anticonvulsant activity [14]: showed anticonvulsant activity in rodents in all of the above mentioned tests
PI (protective index, TD50/ED50), s.c. MET model [15]: 2.9
ED50 ([15]; Mus musculus, ip, read-out: ED50, s.c. MET model): 127 mg/kg
passive avoidance performance (retention) ([16]; rats, day 16, compound 1 200 mg/kg, VPA 500 mg/kg, daily oral): retained their acquired knowledge to avoid the electric shock as well as the control group
active avoidance performance ([4]; rats, compared with VPA group, compound 1 200 mg/kg, VPA 500 mg/kg, daily oral): significantly better performance than the VPA treated group
Avoidance, Session I [4, 22]: 14 ± 7
Crossings, Session I [4, 22]: 38 ± 13
Latency, Session I [4, 22]: 21 ± 3 s
Avoidance, Session II [4, 23]: 12 ± 7
Crossings, Session II [4, 23]: 35 ± 9
Latency, Session II [4, 23]: 22 ± 3 s
LD50 (in vivo): > 4000 mg/kg

SMILES: CCCC(CCC)C(=O)O [Na Valproate]
Big mov. (activity score), day activity 14.00-20.00 h ([10]; rat, in vivo): 2784 ± 352 number of crossings
Big mov. (activity score), night activity 20.00-08.00 h ([10]; rat, in vivo): 5832 ± 854 number of crossings
Total mov. (activity score), day activity 14.00-20.00 h ([10]; rat, in vivo): 8963 ± 1554 number of crossings
Total mov. (activity score), night activity 20.00-08.00 h ([10]; rat, in vivo): 18876 ± 2039 number of crossings
Avoidance, Session I ([4]; rat, in vivo): 2 ± 3
Avoidance, Session II ([4]; rat, in vivo): 6 ± 5
Crossings, Session I ([4]; rat, in vivo): 13 ± 2
Crossings, Session II ([4]; rat, in vivo): 16 ± 9
Latency, Session I ([4]; rat, in vivo): 28 ± 0.4
Latency, Session II ([4]; rat, in vivo): 27 ± 2

SMILES: O=C1NC(=O)C(c2ccccc2)(c2ccccc2)N1 [Phenytoin]
efficacy in s.c. Bic model [17]: not effective
ED50, MES model [2]: 29.8 mg/kg
ED50, s.c. MET model [3]: N.E.
ED50, s.c. MET model [5]: N.E.
TD50 (median neurological toxic dose) [18]: > 3000 mg/kg

SMILES: CCCC(CCC)C(=O)O [VPA, 2-propylpentanoic acid]
ED50, MES model [19]: 272 mg/kg
ED100 ([7]; po): 500 mg/kg
LD50 [20]: 658 mg/kg
ED50, electrical kindling model [1]: 117 mg/kg
ED50, MES model [2]: 490 mg/kg
ED50, s.c. MET model [3]: 146 mg/kg
ED50, s.c. MET model ([3]; listed as Valproic acid): 149 mg/kg
passive avoidance performance (retention) ([16]; rat, in vivo): performed much worse
adverse effects [21]: considerable adverse effects including hepatotoxicity and teratogenicity
active avoidance performance compared with control group ([4]; rat, in vivo): worse performance
ED50, s.c. MET model [5]: 180 mg/kg

SMILES: CCCCCNCC(N)=O [milacemide]
activity in MES model [12]: neither valproylglycine nor milacemide was active
activity in s.c. Met model [15]: neither valproylglycine nor milacemide was active

SMILES: CCCC(CCC)C(=O)NCC(=O)O [valproylglycine]
activity in MES model [12]: neither valproylglycine nor milacemide was active
activity in s.c. Met model [15]: neither valproylglycine nor milacemide was active
